# Like-named read-outs stand apart in the source and are kept apart here.
# What was measured:
# [1] = tested on: CB1 receptor; settings: ref Hill et al., cited from earlier work
# [2] = target: cannabinoid CB1 receptor (Rattus norvegicus, UniProt P20272); assay: CB1 receptor binding assay; assay type: in vivo; settings: for effect on Bmax of the CB1 receptor: imipramine alone
# [3] = tested on: endocannabinoids AEA and 2-AG; assay: Plasma endocannabinoid content; assay type: in vivo, rat; settings: imipramine 10 mg/kg, 21 days; p > 0.05
# [4] = target: T1, fatty acid amide hydrolase (FAAH) (Rattus norvegicus, UniProt P97612); assay: Fatty acid amide hydrolase activity assay; assay type: in vivo; settings: for effect on Vmax of FAAH: combination of CUS and imipramine, p < 0.05; for Km: read-out: binding affinity (Km) of fatty acid amide hydrolase for anandamide
# T1 sequence (P97612 1-579): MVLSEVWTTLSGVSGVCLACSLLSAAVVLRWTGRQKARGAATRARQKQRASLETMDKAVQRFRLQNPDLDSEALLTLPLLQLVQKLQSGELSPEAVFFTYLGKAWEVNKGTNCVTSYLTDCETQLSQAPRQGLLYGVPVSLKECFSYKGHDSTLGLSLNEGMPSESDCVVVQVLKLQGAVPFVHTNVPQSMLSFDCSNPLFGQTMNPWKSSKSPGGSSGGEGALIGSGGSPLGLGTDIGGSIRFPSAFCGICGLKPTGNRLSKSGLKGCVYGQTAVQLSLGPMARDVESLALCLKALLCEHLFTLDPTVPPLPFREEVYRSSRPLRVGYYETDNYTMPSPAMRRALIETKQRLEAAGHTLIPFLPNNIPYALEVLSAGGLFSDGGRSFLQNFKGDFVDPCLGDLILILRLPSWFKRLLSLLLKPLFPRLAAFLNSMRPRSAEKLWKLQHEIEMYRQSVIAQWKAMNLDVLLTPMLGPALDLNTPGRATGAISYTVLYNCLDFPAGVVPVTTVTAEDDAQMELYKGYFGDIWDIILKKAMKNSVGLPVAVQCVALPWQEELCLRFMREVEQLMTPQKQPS
# [5] = tested on: endocannabinoids AEA and 2-AG; assay: Brain tissue endocannabinoid content; settings: imipramine alone; any brain region examined
# cannabinoid CB1 receptor, sequence (P20272 whole entry): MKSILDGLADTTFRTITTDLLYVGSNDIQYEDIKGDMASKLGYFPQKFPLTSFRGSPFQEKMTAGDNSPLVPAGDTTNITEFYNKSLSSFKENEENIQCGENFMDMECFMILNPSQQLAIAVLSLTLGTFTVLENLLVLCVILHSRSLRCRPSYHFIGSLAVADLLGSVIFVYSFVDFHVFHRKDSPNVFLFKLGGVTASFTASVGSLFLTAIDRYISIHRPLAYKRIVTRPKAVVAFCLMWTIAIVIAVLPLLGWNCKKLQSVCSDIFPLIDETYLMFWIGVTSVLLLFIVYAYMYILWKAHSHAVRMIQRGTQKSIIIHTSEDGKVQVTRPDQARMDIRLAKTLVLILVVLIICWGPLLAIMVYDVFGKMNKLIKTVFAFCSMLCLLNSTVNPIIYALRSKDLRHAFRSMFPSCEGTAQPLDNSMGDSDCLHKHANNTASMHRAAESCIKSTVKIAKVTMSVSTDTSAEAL
structure (smiles),measurement,setting,value
CNCCCN1c2ccccc2CCc2ccccc21 [desipramine],effect on CB1 receptor binding,"[1]; hippocampus of unstressed rats, 2006",up-regulation
same,effect on CB1 receptor agonist binding site density,"[1]; hypothalamus, unstressed rats, chronic treatment, 2006",increases
CN(C)CCCN1c2ccccc2CCc2ccccc21 [imipramine],effect on Bmax of the CB1 receptor (increase),"[2]; amygdala, CUS and imipramine combined, p > 0.05",did not occur
same,effect on Bmax of the CB1 receptor,"[2]; amygdala, p < 0.05",increase
same,effect on CB1 receptor agonist binding site density (Bmax),"[2]; hippocampus, imipramine 10 mg/kg, 21 days (ANOVA main effect)",unaffected
same,effect on Bmax for [3H]CP55940 binding to the CB1 receptor,"[2]; hypothalamus, CUS and imipramine together vs control, p > 0.05",no significant difference
same,effect on CB1 receptor binding site density (Bmax),"[2]; midbrain, imipramine 10 mg/kg, 21 days, p < 0.05",significant reduction
same,effect on agonist binding site density (Bmax) of the CB1 receptor,"[2]; prefrontal cortex, imipramine 10 mg/kg, 21 days (ANOVA main effect)",no effect
same,effect on Bmax of the CB1 receptor (reduction),"[2]; ventral striatum, CUS and imipramine concurrently, p > 0.05",not seen
same,effect on Bmax of the CB1 receptor,"[2]; ventral striatum, p < 0.01",significant reductions
same,effect on plasma 2-AG content,[3],unaffected
same,effect on plasma AEA content,[3],neither an effect
same,effect on maximal hydrolytic activity (Vmax) of FAAH,"[4]; imipramine alone, any brain region examined",no effects
same,effect on Vmax of FAAH,[4]; midbrain,increased
same,Km,"[4]; Amygdala, CON/IMI (no stress, imipramine 10 mg/kg, 21 days)",0.95 nM
same,Km,"[4]; Amygdala, CUS/IMI (21 days CUS + imipramine 10 mg/kg)",0.53 nM
same,Km,"[4]; Hippocampus, CON/IMI (no stress, imipramine 10 mg/kg, 21 days)",0.8 nM
same,Km,"[4]; Hippocampus, CUS/IMI (21 days CUS + imipramine 10 mg/kg)",0.71 nM
same,Km,"[4]; Hypothalamus, CON/IMI (no stress, imipramine 10 mg/kg, 21 days)",0.44 nM
same,Km,"[4]; Hypothalamus, CUS/IMI (21 days CUS + imipramine 10 mg/kg)",0.55 nM
same,Km,"[4]; Midbrain, CON/IMI (no stress, imipramine 10 mg/kg, 21 days)",0.6 nM
same,Km,"[4]; Midbrain, CUS/IMI (21 days CUS + imipramine 10 mg/kg)",0.61 nM
same,Km,"[4]; Prefrontal Cortex, CON/IMI (no stress, imipramine 10 mg/kg, 21 days)",0.65 nM
same,Km,"[4]; Prefrontal Cortex, CUS/IMI (21 days CUS + imipramine 10 mg/kg)",0.46 nM
same,Km,"[4]; Ventral Striatum, CON/IMI (no stress, imipramine 10 mg/kg, 21 days)",0.37 nM
same,Km,"[4]; Ventral Striatum, CUS/IMI (21 days CUS + imipramine 10 mg/kg)",0.69 nM
same,effect on Vmax of FAAH,[4]; ventral striatum,increased
same,effect on tissue AEA content,[5],no effect
C[C@]12C[C@H](O)[C@H]3[C@@H](CCC4=CC(=O)CC[C@@]43C)[C@@H]1CC[C@@H]2C(=O)CO [corticosterone],effect on CB1 receptor binding and protein expression,"[1]; hippocampus, 21 days administration, absence of stress, 2008a",comparable reduction

# From publication PMC2606621 (Journal of neurochemistry, 2008)
